Data reported in PubChem BioAssay (NCI).
Values joined by “and” are separate entries in the source; they are usually repeats but may differ in a detail not shown here. Identical values can stand only once.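 These data come from cells grown in 96-well plates and exposed to compound for 48 hours at five concentrations. GI50 is the concentration that inhibits growth by half. TGI: concentration producing complete growth inhibition.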

system: MDA-MB-468 breast; assay: NCI anticancer screen, dose series, 48 h

| Structure (SMILES) | GI50 | TGI |
| --- | --- | --- |
| COC(=O)c1c(C)[nH]c(/C=C2\N=C(c3ccc[nH]3)C=C2OC)c1C | 1200 nM | 2730 nM |
| C=C[C@H]1C[C@@H]2C[C@@H]3[C@H]4C/C=C\C(=O)NCCCC5NC(=O)C(=C(O)/C=C/[C@@H]4CC(=O)[C@H]3[C@@H]2[C@H]1C)C5=O (stereo partly drawn) | 1590 nM | 3090 nM |
| CCc1oc2ccccc2c1C(=O)c1cc(I)c(O)c(I)c1 | 2380 nM | 8500 nM |
| Cc1ccc2c3c(c(=O)[nH]c2c1)C1(C(C#N)=C(N)O3)c2cc(Br)ccc2-c2ccc(Br)cc21 | 1640 nM | 3550 nM |
| N#Cc1cccc(NC(=O)c2cc(-c3ccc(F)cc3F)ccc2O)c1 | 1660 nM and 1450 nM | 5940 nM and 6400 nM |
| COc1ccc(-c2nnc(COc3ccc(NC(=O)Nc4ccc(Cl)c(C(F)(F)F)c4)cc3F)o2)cc1 | 2270 nM | 8600 nM |
| CC[CH2][Sn]([Cl])([Cl])[CH2]CC.Oc1ccccc1C=NCCN=Cc1ccccc1O | 1510 nM | 3270 nM |
| CCOC(=O)c1c(C)nc2c(c1N)/C(=C/c1ccc(OC)cc1)C(=O)N2Cc1ccc(F)cc1 | 194 nM | 650 nM |
| COc1ccc2nc3cc(Cl)ccc3c(NCCN)c2c1 | 1840 nM | 3790 nM |
| O=C1/C(=C/c2ccc(O)cc2)CSc2ccc(Cl)cc21 | 4840 nM | 28000 nM |
| Cc1cc(O)c(C(C)(C)C)cc1Sc1cc(C(C)(C)C)c(O)cc1C | 2090 nM | 5120 nM |
| COc1cc(NS(=O)(=O)c2ccc(-c3cnc(C4CC4)o3)cc2)ccc1F | 122 nM | 11300 nM |
| Fc1ccc(-c2nn3ncccc3c2-c2ccnc(Nc3ccc4c(c3)OCCO4)n2)cc1 | 624 nM | 3240 nM |
| Cc1c2cc(O)c(=O)cc-2oc2cc(O)c(O)cc12 | > 100000 nM | > 100000 nM |
| Cc1ccc(NC(=O)c2sc3nc(C)c(C(O)c4ccccc4)cc3c2N)cc1 (stereo not drawn) | 349 nM | 50700 nM |
| CC1(C)N=C(N)N=C(N)N1c1ccc(OCc2ccc(S(=O)(=O)F)c(Cl)c2)c(Cl)c1 | 2290 nM | > 100000 nM |
| Nc1nc(-c2cccc(Cl)c2)c(-c2ccc3ncccc3n2)s1 | > 15700 nM | > 25000 nM |
| COc1ccc(OC)c(C(=O)c2oc3ccc(Br)cc3c2N)c1 | 206 nM | 5220 nM |
| C=C1C(=O)O[C@H]2[C@H]1CC/C(COC(=O)c1cc3ccccc3s1)=C\CC[C@@]1(C)O[C@@H]21 | 1630 nM | 3950 nM |
| Cn1c2ccccc2c2c3[nH]c(=O)[nH]c(=O)c3c3c4ccccc4n(C)c3c21 | 3510 nM | 29100 nM |

| Structure (SMILES) | GI50 | TGI |
| --- | --- | --- |
| CC(C)(C)c1cc(NC(=O)Cc2ccc(-c3cnc4cc(-c5cnn(CCN6CCOCC6)c5)ccc4n3)cc2)no1 | 700 nM and 796 nM and 111 nM | 50000 nM and > 100000 nM and > 3000 nM |
| Cc1ccc(NC(=O)NCCCOc2ccc(N3C(N)=NC(N)=NC3(C)C)cc2Cl)cc1S(=O)(=O)F | 17300 nM | > 100000 nM |
| COC(=O)C12C3C4C1C1C2C3C41NC(=O)c1csc([C@@H](C[C@H](C(C)C)N(C)C(=O)[C@@H](NC(=O)[C@H]2CCCCN2C)C2CC2)OC(C)=O)n1 (stereo partly drawn) | 19.8 nM | 31500 nM |
| CON(C)C(=O)N1N=C(c2cc(F)ccc2F)SC1(CCCN)c1ccccc1 (stereo not drawn) | < 10 nM | 1570 nM and 456 nM |
| CC(C)(O)c1cncc(-c2ccc3ncc(C#N)c(N4CCc5cc(F)c(Cl)cc54)c3c2)c1 | 11800 nM | 30600 nM |
| C=C(C)C1CCC2(C(=O)O)CCC3(C)C(CCC4C5(C)CCC(OC(=O)NCc6ccccc6)C(C)(C)C5CCC43C)C12 (stereo not drawn) | 1730 nM | 34700 nM |
| COc1cc(/C=C2\CCCC3=C2NC(C)=NC3c2cc(OC)c(OC)c(OC)c2)cc(OC)c1OC (stereo not drawn) | 1180 nM | 3910 nM |
| Cc1ccc(C(=O)Nc2ccc(CN3CCN(C)CC3)c(C(F)(F)F)c2)cc1C#Cc1cnc(N)c2ccccc12 | 620 nM | 1640 nM |
| CC[C@H](C)[C@H]1O[C@]2(C=C[C@@H]1C)C[C@@H]1C[C@@H](C/C=C(\C)[C@@H](O[C@H]3C[C@H](OC)[C@@H](O[C@H]4C[C@H](OC)[C@@H](NC)[C@H](C)O4)[C@H](C)O3)[C@@H](C)/C=C/C=C3\CO[C@@H]4[C@H](O)C(C)=C[C@@H](C(=O)O1)[C@]34O)O2 | 1460 nM | 3170 nM |
| CCN(CC)CCCC(C)Nc1cnc(C(=O)Nc2cccc3ccc(OC)nc23)cn1 (stereo not drawn) | 1580 nM | 3190 nM |
| O=S1(=O)N(CCNc2nccc(-c3c(-c4cccc(O)c4)nc4sccn34)n2)CCN1Cc1ccccc1 | 8460 nM | 27900 nM |
| CN1CCN(c2ccc(Nc3nc(NCCCNS(=O)(=O)c4ccc(C(F)(F)F)cc4)c4sccc4n3)cc2)CC1 | 1730 nM | 3560 nM |
| COc1ncc(-c2ccc3ncnc(Nc4cccc(Cl)c4)c3c2)cc1NS(=O)(=O)CCN1CCOCC1 | < 10 nM | 437 nM |
| CCCCCN(CCCCC)CC(O)c1ccc(Cl)c2ccccc12 (stereo not drawn) | 11100 nM | 24000 nM |
| COC(=O)[C@H](Cc1c[nH]c2ccccc12)NC(=O)[C@@H](OC)[C@@H]1Cc2cc3cc(OC4CC(OC5CC(O)C(O)C(C)O5)C(O)C(C)O4)c(C)c(O)c3c(O)c2C(=O)[C@H]1OC1CC(OC2CC(OC3CC(C)(O)C(O)C(C)O3)C(O)C(C)O2)C(O)C(C)O1 (stereo partly drawn) | 3.21 nM | 11 nM |
| O=C(/C=C\n1cnc(-c2cc(C(F)(F)F)cc(C(F)(F)F)c2)n1)NNc1cnccn1 | 92.3 nM | 657 nM |
| C/C(=N\Nc1ccc(Cl)cn1)c1ccccn1 | 65.5 nM | 293 nM |
| O=C(/C(=C/c1cccc([N+](=O)[O-])c1)c1ccccc1)c1ccccc1 | 2700 nM | 8800 nM |
| CCCn1cnc2c(c1=N)C(c1ccc(F)cc1)c1sc3c(C)cccc3c1O2 (stereo not drawn) | 1290 nM | 19200 nM |
